Data taken from ChEMBL document CHEMBL1201862, “PubChem BioAssay data set” (2004).
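Five concentrations, 48 hours, 96-well plates. GI50 marks 50% less growth.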 Activity calls are given as the source filed them. Cut-off read from the data, not from the text of the source: active = GI50 up to about 1.1 µM and inactive = higher.

Experiments:
Assay in all cases: inhibition of tumour cell growth, NCI panel, 48 h
786-0 = test system: 786-0
A498 = test system: A498
A549 = test system: A549
BT-549 = test system: BT-549
CAKI-1 = test system: CAKI-1
CCRF-CEM = test system: CCRF-CEM
HCC 2998 = test system: HCC 2998
IGROV-1 = test system: IGROV-1
KM12 = test system: KM12
MOLT-4 = test system: MOLT-4
NCI-H23 = test system: NCI-H23
NCI-H522 = test system: NCI-H522
OVCAR-4 = test system: OVCAR-4
SF-268 = test system: SF-268
SF-539 = test system: SF-539
SN12C = test system: SN12C
SNB-75 = test system: SNB-75
UO-31 = test system: UO-31
OVCAR-3 = test system: OVCAR-3
SF-295 = test system: SF-295

Row | SMILES | GI50 (786-0) | GI50 (A498) | GI50 (A549) | GI50 (BT-549) | GI50 (CAKI-1) | GI50 (CCRF-CEM) | GI50 (HCC 2998) | GI50 (IGROV-1) | GI50 (KM12) | GI50 (MOLT-4) | GI50 (NCI-H23) | GI50 (NCI-H522) | GI50 (OVCAR-4) | GI50 (SF-268) | GI50 (SF-539) | GI50 (SN12C) | GI50 (SNB-75) | GI50 (UO-31) | GI50 (OVCAR-3) | GI50 (SF-295)
1 | C[C@H](CCC(=O)O)[C@H]1CC[C@H]2[C@@H]3C(=O)C[C@@H]4C[C@H](O)CC[C@]4(C)[C@H]3C[C@H](O)[C@]12C | > 100 µM (inactive) | > 100 µM (inactive) | > 100 µM (inactive) | > 100 µM (inactive) | > 100 µM (inactive) | > 100 µM (inactive) | > 100 µM (inactive) | > 100 µM (inactive) | > 100 µM (inactive) | > 100 µM (inactive) | > 100 µM (inactive) | > 100 µM (inactive) | > 100 µM (inactive) | > 100 µM (inactive) | > 100 µM (inactive) | > 100 µM (inactive) | 85.5 µM (inactive) | > 100 µM (inactive) | – | –
2 | COC(=O)/C(=C\c1cn(C(C)=O)c2ccccc12)P(=O)(OC)OC | 17.6 µM (inactive) | 17.3 µM (inactive) | 16.4 µM (inactive) | 15.8 µM (inactive) | 12.6 µM (inactive) | 14.6 µM (inactive) | 16.8 µM (inactive) | 13.3 µM (inactive) | – | 34.8 µM (inactive) | 14.8 µM (inactive) | 11.2 µM (inactive) | 14.6 µM (inactive) | 22.4 µM (inactive) | 16 µM (inactive) | 14.8 µM (inactive) | 12 µM (inactive) | 13.1 µM (inactive) | 17.1 µM (inactive) | 14.9 µM (inactive)
3 | O=C1c2cccc(NCCNCCO)c2C(=O)c2cccc(NCCNCCO)c21 | 0.665 µM (active) | 2.48 µM (inactive) | 1.56 µM (inactive) | 2.96 µM (inactive) | 0.64 µM (active) | 0.267 µM (active) | 0.802 µM (active) | 1.56 µM (inactive) | 0.792 µM (active) | 0.443 µM (active) | 1.87 µM (inactive) | 0.312 µM (active) | 0.889 µM (active) | 0.518 µM (active) | 0.601 µM (active) | 0.782 µM (active) | 1.03 µM (active) | 4.72 µM (inactive) | 1.57 µM (inactive) | 1.79 µM (inactive)
4 | CN(C)CCCn1c2c3ccccc3ccc2c2oc(=O)c3ccccc3c21 | 2.64 µM (inactive) | 13.3 µM (inactive) | 4.53 µM (inactive) | > 40.6 µM (inactive) | 7.76 µM (inactive) | 3.31 µM (inactive) | 1.22 µM (inactive) | 7.93 µM (inactive) | 3.83 µM (inactive) | 0.986 µM (active) | 6.82 µM (inactive) | 3.52 µM (inactive) | 6.38 µM (inactive) | 5.41 µM (inactive) | 4.66 µM (inactive) | 5.62 µM (inactive) | 2.48 µM (inactive) | 3.44 µM (inactive) | 5.48 µM (inactive) | 3.62 µM (inactive)
5 | NC(=S)N/N=C/C1NCCC2CCCCC21 (stereo not drawn) | 0.138 µM (active) | 0.17 µM (active) | 0.262 µM (active) | 0.834 µM (active) | 0.0715 µM (active) | 0.31 µM (active) | 0.108 µM (active) | 0.689 µM (active) | 0.416 µM (active) | 0.257 µM (active) | 0.133 µM (active) | 0.318 µM (active) | 1.73 µM (inactive) | 0.313 µM (active) | 0.0272 µM (active) | 0.167 µM (active) | 24.2 µM (inactive) | 0.34 µM (active) | 0.312 µM (active) | 0.0673 µM (active)
6 | O=C1NNC2NC(=O)C3(NN2C1=O)c1ccccc1-c1ccccc13 (stereo not drawn) | > 100 µM (inactive) | > 100 µM (inactive) | > 100 µM (inactive) | > 100 µM (inactive) | > 100 µM (inactive) | > 100 µM (inactive) | > 100 µM (inactive) | > 100 µM (inactive) | – | – | > 100 µM (inactive) | > 100 µM (inactive) | > 100 µM (inactive) | > 100 µM (inactive) | > 100 µM (inactive) | > 100 µM (inactive) | > 100 µM (inactive) | > 100 µM (inactive) | > 100 µM (inactive) | > 100 µM (inactive)
7 | O=C1/C(=C\c2ccccc2)CN(C(=O)CCN2CCCCC2)C/C1=C/c1ccccc1 | 1.3 µM (inactive) | 2.69 µM (inactive) | 3.73 µM (inactive) | 0.553 µM (active) | 1.71 µM (inactive) | 0.198 µM (active) | 1.44 µM (inactive) | 1.95 µM (inactive) | 0.379 µM (active) | 0.231 µM (active) | 1.89 µM (inactive) | 0.757 µM (active) | 1.73 µM (inactive) | 1.78 µM (inactive) | 3.25 µM (inactive) | 0.966 µM (active) | 0.834 µM (active) | 1.91 µM (inactive) | 2.28 µM (inactive) | 1.67 µM (inactive)
8 | COCCOC(=O)C(C)=[N+]=[N-] | > 100 µM (inactive) | > 100 µM (inactive) | – | > 100 µM (inactive) | > 100 µM (inactive) | – | > 100 µM (inactive) | > 100 µM (inactive) | > 100 µM (inactive) | – | > 100 µM (inactive) | > 100 µM (inactive) | > 100 µM (inactive) | > 100 µM (inactive) | – | > 100 µM (inactive) | > 100 µM (inactive) | > 100 µM (inactive) | > 100 µM (inactive) | > 100 µM (inactive)
9 | CO[C@H]1C[C@H](O[C@H]2CC[C@]3(C=O)[C@H]4CC[C@]5(C)[C@@H](C6=CC(=O)OC6)CC[C@]5(O)[C@@H]4CC[C@]3(O)C2)O[C@H](C)[C@H]1O [CYMARIN] | 0.137 µM (active) | 0.294 µM (active) | 0.0805 µM (active) | 0.207 µM (active) | 0.102 µM (active) | – | 2.08 µM (inactive) | 0.448 µM (active) | 0.402 µM (active) | 0.0883 µM (active) | 0.157 µM (active) | < 0.0393 µM (active) | 0.107 µM (active) | 0.126 µM (active) | 0.0809 µM (active) | 0.042 µM (active) | 0.4 µM (active) | 0.308 µM (active) | 0.146 µM (active) | 0.133 µM (active)
10 | CN(C)c1ccc(/C=C/c2ccnc3ccccc23)cc1 | 89.7 µM (inactive) | > 100 µM (inactive) | 61.4 µM (inactive) | 18.2 µM (inactive) | > 100 µM (inactive) | 49.5 µM (inactive) | > 100 µM (inactive) | > 100 µM (inactive) | 55.8 µM (inactive) | – | 39.4 µM (inactive) | – | 55.6 µM (inactive) | > 100 µM (inactive) | > 100 µM (inactive) | 64.9 µM (inactive) | 28.8 µM (inactive) | 43.9 µM (inactive) | > 100 µM (inactive) | 54.7 µM (inactive)
11 | C/C(=N\NS(=O)(=O)c1ccc(C)cc1)c1ccccn1 | 45.3 µM (inactive) | 24.3 µM (inactive) | 53.3 µM (inactive) | > 100 µM (inactive) | 36 µM (inactive) | 18.5 µM (inactive) | > 100 µM (inactive) | 47.2 µM (inactive) | 43.7 µM (inactive) | 21.2 µM (inactive) | 54.1 µM (inactive) | – | 68.2 µM (inactive) | 67.3 µM (inactive) | 40.8 µM (inactive) | – | > 100 µM (inactive) | 40.5 µM (inactive) | 50.7 µM (inactive) | 43.3 µM (inactive)
12 | COC(=O)[C@@H]1C2OC(C)(C)OC2CN1C(=O)OCc1ccccc1 (stereo partly drawn) | > 100 µM (inactive) | > 100 µM (inactive) | > 100 µM (inactive) | > 100 µM (inactive) | > 100 µM (inactive) | – | > 100 µM (inactive) | > 100 µM (inactive) | > 100 µM (inactive) | > 100 µM (inactive) | > 100 µM (inactive) | > 100 µM (inactive) | > 100 µM (inactive) | > 100 µM (inactive) | > 100 µM (inactive) | > 100 µM (inactive) | 4.58 µM (inactive) | > 100 µM (inactive) | > 100 µM (inactive) | > 100 µM (inactive)
13 | C[C@]12CC[C@@H]3c4cc(C=O)c(OCc5ccccc5)cc4CC[C@H]3[C@@H]1CCC2OCc1ccccc1 (stereo partly drawn) | > 100 µM (inactive) | > 100 µM (inactive) | 60.7 µM (inactive) | > 100 µM (inactive) | > 100 µM (inactive) | > 100 µM (inactive) | > 100 µM (inactive) | – | > 100 µM (inactive) | > 100 µM (inactive) | 89.9 µM (inactive) | 80 µM (inactive) | > 100 µM (inactive) | > 100 µM (inactive) | > 100 µM (inactive) | > 100 µM (inactive) | > 100 µM (inactive) | > 100 µM (inactive) | > 100 µM (inactive) | > 100 µM (inactive)
14 | O=C(Nc1ccc2[nH]c(C(=O)N3CC(CCl)c4c3cc([N+](=O)[O-])c3ccccc43)cc2c1)c1cc2ccccc2o1 (stereo not drawn) | > 100 µM (inactive) | > 57.7 µM (inactive) | > 100 µM (inactive) | 38.2 µM (inactive) | > 100 µM (inactive) | 46.1 µM (inactive) | > 46.9 µM (inactive) | > 51.6 µM (inactive) | > 100 µM (inactive) | – | > 55.7 µM (inactive) | > 100 µM (inactive) | > 100 µM (inactive) | > 100 µM (inactive) | > 1100 µM (inactive) | > 100 µM (inactive) | > 56.6 µM (inactive) | > 100 µM (inactive) | > 100 µM (inactive) | 395 µM (inactive)
